In patent publication US12338236B2, “Benzoisothiazole and benzoisoxazole compounds for the treatment of mental disorders” (SUVEN LIFE SCIENCES LIMITED, priority 2022, dated 2025):
Counter-ions that a name gives are not always drawn.

Columns and labels:
human 5-HT2A receptor = target: T1, human 5-HT2A receptor (Homo sapiens, UniProt P28223); assay: Determination of Ki values at 5-HT2A receptor ([3H]-Ketanserine radioligand binding); details: h5-HT2A, CHO-K1, [3H]-Ketanserine 1.25 nM
T1 construct: expressed in transfected cells; host or cells: CHO-K1
Description: Example-44: Determination of Ki Values at 5-HT2A Receptor
• Receptor source: Recombinant mammalian cells (CHO-K1) • Radioligand: [^3H]-Ketanserine (41.9 Ci/mmol) • Final ligand concentration: 1.25 nM • Non-specific determinant: 0.1 mM 1-Napthyl piperazine (1-NP) • Reference compound: 1-Napthyl piperazine (1-NP) • Positive control: 1-Napthyl piperazine (1-NP) Incubation conditions: Reactions were carried out in buffer with pH 7.4 containing 50 mM Tris-HCl, 4 mM CaCl2, 0.1% Ascorbic acid for 1 h at RT. The reaction was terminated by rapid vacuum filtration onto the glass fiber filters. Radioactivity trapped onto the filters was determined and compared to the control values in order to ascertain any interactions of the test compound(s) with cloned human 5-HT2A receptor binding site.

[1] = target: T2, human adrenergic α1B receptor (Homo sapiens, UniProt P35368); assay: Determination of Ki values at adrenergic α1B receptor ([3H]-Prazosin radioligand binding); details: hα1B, Chem-1 cells, [3H]-Prazosin 1 nM; read-out: Ki Alpha1B
T2 construct: expressed in transfected cells; host or cells: Chem-1
T2 sequence (P35368 1-520): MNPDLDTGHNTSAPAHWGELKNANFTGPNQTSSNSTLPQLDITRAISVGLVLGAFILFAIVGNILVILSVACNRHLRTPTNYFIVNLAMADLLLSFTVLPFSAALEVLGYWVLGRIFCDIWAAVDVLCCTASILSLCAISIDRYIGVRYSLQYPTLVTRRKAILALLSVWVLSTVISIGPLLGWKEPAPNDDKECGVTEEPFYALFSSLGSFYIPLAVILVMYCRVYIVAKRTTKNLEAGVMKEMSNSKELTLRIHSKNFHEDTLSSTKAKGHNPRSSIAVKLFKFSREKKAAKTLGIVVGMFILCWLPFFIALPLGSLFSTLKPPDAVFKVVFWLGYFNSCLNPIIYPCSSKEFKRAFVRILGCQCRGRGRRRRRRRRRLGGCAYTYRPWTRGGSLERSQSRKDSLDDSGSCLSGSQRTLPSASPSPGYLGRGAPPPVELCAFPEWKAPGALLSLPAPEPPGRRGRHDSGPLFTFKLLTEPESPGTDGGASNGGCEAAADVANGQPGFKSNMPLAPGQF
Description: Example-47: Determination of Ki Values at Adrenergic α1B Receptor
• Receptor source: Recombinant mammalian cells (Chem-1) • Radioligand: [^3H]-Prazosin (77.4 Ci/mmol) • Final ligand concentration: 1 nM • Non-specific determinant: 0.1 mM Prazosin • Reference compound: Prazosin • Positive control: Prazosin Incubation conditions: Reactions were carried out in buffer with pH 7.4 containing 67 mM Tris-HCl, 67 μM EDTA, […] for 1 h at RT. The reaction was terminated by rapid vacuum filtration onto the glass fiber filters. Radioactivity trapped onto the filters was determined and compared to the control values in order to ascertain any interactions of the test compound(s) with cloned human adrenergic α1B receptor binding site.

[2] = target: T3, human dopamine D2s receptor (Homo sapiens, UniProt P14416); assay: Determination of Ki values at D2S receptor ([3H]-Raclopride radioligand binding); details: hD2 (D2S), CHO-K1, [3H]-Raclopride 4 nM; read-out: Ki D2
T3 construct: expressed in transfected cells; host or cells: CHO-K1
Description: Example-45: Determination of Ki Values at D2S Receptor
• Receptor source: Recombinant mammalian cells (CHO-K1) • Radioligand: [^3H]-Raclopride (80.8 Ci/mmol) • Final ligand concentration: 4 nM • Non-specific determinant: 0.1 mM Haloperidol • Reference compound: Haloperidol • Positive control: Haloperidol Incubation conditions: Reactions were carried out in buffer with pH 7.4 containing 50 mM Tris-HCl, 120 mM NaCl, 5 mM KCl, 5 mM MgCl2, 1 mM EDTA for 2 h at RT. The reaction was terminated by rapid vacuum filtration onto the glass fiber filters. Radioactivity trapped onto the filters was determined and compared to the control values in order to ascertain any interactions of the test compound(s) with cloned human dopamine D2s receptor binding site.

human 5-HT1A receptor = target: T4, human 5-HT1A receptor (Homo sapiens, UniProt P08908); assay: Determination of Ki values at 5-HT1A receptor ([3H]-8-Hydroxy DPAT radioligand binding); details: h5-HT1A, HEK293-EBNA, [3H]-8-Hydroxy DPAT 0.8 nM
T4 construct: expressed in transfected cells; host or cells: HEK293-EBNA
T4 sequence (P08908 1-422): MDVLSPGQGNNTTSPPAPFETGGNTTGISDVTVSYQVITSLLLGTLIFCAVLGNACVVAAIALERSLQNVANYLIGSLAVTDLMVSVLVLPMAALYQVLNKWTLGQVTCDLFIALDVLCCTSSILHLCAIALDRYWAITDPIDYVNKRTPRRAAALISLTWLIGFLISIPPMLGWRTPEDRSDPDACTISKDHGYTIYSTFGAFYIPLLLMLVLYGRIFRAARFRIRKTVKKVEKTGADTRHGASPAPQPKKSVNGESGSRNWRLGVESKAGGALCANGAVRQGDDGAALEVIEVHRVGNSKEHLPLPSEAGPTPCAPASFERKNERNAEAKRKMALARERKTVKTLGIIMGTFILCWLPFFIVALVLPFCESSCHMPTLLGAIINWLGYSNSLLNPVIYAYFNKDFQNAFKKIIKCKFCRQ
Description: Example-43: Determination of Ki Values at 5-HT1A Receptor
• Receptor source: Recombinant mammalian cells (HEK293-EBNA) • Radioligand: [^3H]-8-Hydroxy DPAT (200 Ci/mmol) • Final ligand concentration: 0.8 nM • Non-specific determinant: 0.1 mM U92016A • Reference compound: U92016A • Positive control: U92016A Incubation conditions: Reactions were carried out in buffer with pH 7.4 containing 50 mM Tris-HCl, 0.5 mM EDTA, 10 mM MgSO4, 0.1% Ascorbic acid for 2 h at RT. The reaction was terminated by rapid vacuum filtration onto the glass fiber filters. Radioactivity trapped onto the filters was determined and compared to the control values in order to ascertain any interactions of the test compound(s) with cloned human 5-HT1A receptor binding site.

T3 sequence (P14416 1-414 isoform P14416-2): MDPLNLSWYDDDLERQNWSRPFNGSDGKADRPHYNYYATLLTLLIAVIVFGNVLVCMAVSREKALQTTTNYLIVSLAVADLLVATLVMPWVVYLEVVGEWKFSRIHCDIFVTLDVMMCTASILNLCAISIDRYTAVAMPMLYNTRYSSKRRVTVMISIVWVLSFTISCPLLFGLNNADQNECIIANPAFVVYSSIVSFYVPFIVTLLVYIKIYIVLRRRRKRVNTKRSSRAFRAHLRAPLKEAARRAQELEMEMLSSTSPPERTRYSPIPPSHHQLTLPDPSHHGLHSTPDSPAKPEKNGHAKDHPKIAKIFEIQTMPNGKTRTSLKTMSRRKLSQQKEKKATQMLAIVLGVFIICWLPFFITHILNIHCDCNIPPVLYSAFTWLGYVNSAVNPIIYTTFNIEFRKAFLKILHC
T1 sequence (P28223 whole entry): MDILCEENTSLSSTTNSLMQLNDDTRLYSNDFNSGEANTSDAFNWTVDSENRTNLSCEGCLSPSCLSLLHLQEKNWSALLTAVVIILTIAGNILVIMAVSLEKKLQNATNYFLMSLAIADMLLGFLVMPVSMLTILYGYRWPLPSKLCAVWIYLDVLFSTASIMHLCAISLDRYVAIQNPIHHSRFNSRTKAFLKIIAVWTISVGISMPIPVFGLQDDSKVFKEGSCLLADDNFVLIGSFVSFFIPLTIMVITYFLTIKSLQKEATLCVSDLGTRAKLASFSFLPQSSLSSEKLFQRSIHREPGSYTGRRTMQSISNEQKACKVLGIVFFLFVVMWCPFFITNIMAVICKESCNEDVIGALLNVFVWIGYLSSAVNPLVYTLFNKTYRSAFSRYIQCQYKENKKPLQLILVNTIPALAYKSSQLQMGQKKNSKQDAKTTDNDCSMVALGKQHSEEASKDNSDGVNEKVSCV

Compound	Ki (human 5-HT2A receptor) [nM]	Ki [1] [nM]	Ki [2] [nM]	Ki (human 5-HT1A receptor) [nM]
Cc1noc(-c2csc(OCCCN3CCN(c4nsc5ccccc45)CC3)n2)n1 [compound 12, 3-(4-{3-[4-(3-Methyl-[1,2,4]oxadiazol-5-yl)-thiazol-2-yloxy]-propyl}-piperazin-1-yl)-benzo[d]isothiazole oxalate]	0.5	14.4	0.4	0.2
Cc1nnc(-c2csc(OCCCN3CCN(c4nsc5ccccc45)CC3)n2)o1 [Example-2, 3-(4-{3-[4-(5-Methyl-[1,3,4]oxadiazol-2-yl)-thiazol-2-yloxy]-propyl}-piperazin-1-yl)-benzo[d]isothiazole oxalate]	0.24	13.3	0.41	0.15
